Results from ChEMBL document CHEMBL4680318, “(S)-Erypoegin K, an isoflavone isolated from Erythrina poeppigiana, is a novel inhibitor of topoisomerase IIα: Induction of G2 phase arrest in human gastric cancer cells” (Bioorg Med Chem, 2021).
Active and inactive are the calls of the source. No cut-off for these calls is given here.

Key:
OVCAR-5 = assay: Growth inhibition of human OVCAR-5 cells measured after 48 hrs by sulforhodamine B assay; type: functional
MKN-45 = assay: Growth inhibition of human MKN-45 cells measured after 48 hrs by sulforhodamine B assay; type: functional
[1] = Growth inhibition of human HBC4 cells measured after 48 hrs by sulforhodamine B assay; type: functional
[2] = Growth inhibition of human HBC5 cells measured after 48 hrs by sulforhodamine B assay; type: functional
OVCAR-4 = assay: Growth inhibition of human OVCAR-4 cells measured after 48 hrs by sulforhodamine B assay; type: functional
SK-OV-3 = assay: Growth inhibition of human SK-OV-3 cells measured after 48 hrs by sulforhodamine B assay; type: functional
SF-539 = assay: Growth inhibition of human SF-539 cells measured after 48 hrs by sulforhodamine B assay; type: functional
PC-3 = assay: Growth inhibition of human PC-3 cells measured after 48 hrs by sulforhodamine B assay; type: functional
MKN-74 = assay: Growth inhibition of human MKN-74 cells measured after 48 hrs by sulforhodamine B assay; type: functional
OVCAR-8 = assay: Growth inhibition of human OVCAR-8 cells measured after 48 hrs by sulforhodamine B assay; type: functional
MKN-28 = assay: Growth inhibition of human MKN-28 cells measured after 48 hrs by sulforhodamine B assay; type: functional
DMS-114 = assay: Growth inhibition of human DMS-114 cells measured after 48 hrs by sulforhodamine B assay; type: functional
SF-268 = assay: Growth inhibition of human SF-268 cells measured after 48 hrs by sulforhodamine B assay; type: functional
KM12 = assay: Growth inhibition of human KM12 cells measured after 48 hrs by sulforhodamine B assay; type: functional
ACHN = assay: Growth inhibition of human ACHN cells measured after 48 hrs by sulforhodamine B assay; type: functional
MCF7 = assay: Growth inhibition of human MCF7 cells measured after 48 hrs by sulforhodamine B assay; type: functional
St-4 = assay: Growth inhibition of human St-4 cells measured after 48 hrs by sulforhodamine B assay; type: functional
A549 = assay: Growth inhibition of human A549 cells measured after 48 hrs by sulforhodamine B assay; type: functional
DMS-273 = assay: Growth inhibition of human DMS-273 cells measured after 48 hrs by sulforhodamine B assay; type: functional
LOX IMVI = assay: Growth inhibition of human LOX IMVI cells measured after 48 hrs by sulforhodamine B assay; type: functional
[3] = Growth inhibition of human BSY1 cells measured after 48 hrs by sulforhodamine B assay; type: functional; conditions: BSY-1
U-251 = assay: Growth inhibition of human U-251 cells measured after 48 hrs by sulforhodamine B assay; type: functional
HT-29 = assay: Growth inhibition of human HT-29 cells measured after 48 hrs by sulforhodamine B assay; type: functional
NCI-H460 = assay: Growth inhibition of human NCI-H460 cells measured after 48 hrs by sulforhodamine B assay; type: functional
GCIY = assay: Antitumor activity against human GCIY cells xenografted in KSN/Slc nude mouse assessed as reduction in tumor size at 40 mg/kg, ip administered twice a week for 4 weeks starting from day 4 post inoculation by vernier caliper method; type: functional, organism-based
SNB-75 = assay: Growth inhibition of human SNB-75 cells measured after 48 hrs by sulforhodamine B assay; type: functional
MKN-1 = assay: Growth inhibition of human MKN-1 cells measured after 48 hrs by sulforhodamine B assay; type: functional
OVCAR-3 = assay: Growth inhibition of human OVCAR-3 cells measured after 48 hrs by sulforhodamine B assay; type: functional
DU-145 = assay: Growth inhibition of human DU-145 cells measured after 48 hrs by sulforhodamine B assay; type: functional
NCI-H522 = assay: Growth inhibition of human NCI-H522 cells measured after 48 hrs by sulforhodamine B assay; type: functional
SNB-78 = assay: Growth inhibition of human SNB-78 cells measured after 48 hrs by sulforhodamine B assay; type: functional
HCC 2998 = assay: Growth inhibition of human HCC 2998 cells measured after 48 hrs by sulforhodamine B assay; type: functional
HCT-15 = assay: Growth inhibition of human HCT-15 cells measured after 48 hrs by sulforhodamine B assay; type: functional
MDA-MB-231 = assay: Growth inhibition of human MDA-MB-231 cells measured after 48 hrs by sulforhodamine B assay; type: functional
[4] = Toxicity in KSN/Slc nude mouse xenografted with human GCIY cells assessed as effect on body weight at 40 mg/kg, ip administered twice a week for 4 weeks starting from day 4 post inoculation; type: organism-based; conditions: in vivo, 672 h
MKN-7 = assay: Growth inhibition of human MKN-7 cells measured after 48 hrs by sulforhodamine B assay; type: functional
RXF 631 = assay: Growth inhibition of human RXF 631 cells measured after 48 hrs by sulforhodamine B assay; type: functional
HCT-116 = assay: Growth inhibition of human HCT-116 cells measured after 48 hrs by sulforhodamine B assay; type: functional
SF-295 = assay: Growth inhibition of human SF-295 cells measured after 48 hrs by sulforhodamine B assay; type: functional
NCI-H23 = assay: Growth inhibition of human NCI-H23 cells measured after 48 hrs by sulforhodamine B assay; type: functional
NCI-H226 = assay: Growth inhibition of human NCI-H226 cells measured after 48 hrs by sulforhodamine B assay; type: functional
[5] = target: DNA topoisomerase 2-alpha (Homo sapiens) (UniProt P11388); assay: Inhibition of human DNA topoisomerase 2alpha assessed as stabilization of DNA cleavage complex at 50 to 200 uM using supercoiled pSL1180 plasmid DNA as substrate measured after 30 mins by ethidium bromide staining-based UV imaging analysis; conditions: dose 50-200 µM
DNA topoisomerase 2-alpha (Homo sapiens), sequence (P11388 whole entry): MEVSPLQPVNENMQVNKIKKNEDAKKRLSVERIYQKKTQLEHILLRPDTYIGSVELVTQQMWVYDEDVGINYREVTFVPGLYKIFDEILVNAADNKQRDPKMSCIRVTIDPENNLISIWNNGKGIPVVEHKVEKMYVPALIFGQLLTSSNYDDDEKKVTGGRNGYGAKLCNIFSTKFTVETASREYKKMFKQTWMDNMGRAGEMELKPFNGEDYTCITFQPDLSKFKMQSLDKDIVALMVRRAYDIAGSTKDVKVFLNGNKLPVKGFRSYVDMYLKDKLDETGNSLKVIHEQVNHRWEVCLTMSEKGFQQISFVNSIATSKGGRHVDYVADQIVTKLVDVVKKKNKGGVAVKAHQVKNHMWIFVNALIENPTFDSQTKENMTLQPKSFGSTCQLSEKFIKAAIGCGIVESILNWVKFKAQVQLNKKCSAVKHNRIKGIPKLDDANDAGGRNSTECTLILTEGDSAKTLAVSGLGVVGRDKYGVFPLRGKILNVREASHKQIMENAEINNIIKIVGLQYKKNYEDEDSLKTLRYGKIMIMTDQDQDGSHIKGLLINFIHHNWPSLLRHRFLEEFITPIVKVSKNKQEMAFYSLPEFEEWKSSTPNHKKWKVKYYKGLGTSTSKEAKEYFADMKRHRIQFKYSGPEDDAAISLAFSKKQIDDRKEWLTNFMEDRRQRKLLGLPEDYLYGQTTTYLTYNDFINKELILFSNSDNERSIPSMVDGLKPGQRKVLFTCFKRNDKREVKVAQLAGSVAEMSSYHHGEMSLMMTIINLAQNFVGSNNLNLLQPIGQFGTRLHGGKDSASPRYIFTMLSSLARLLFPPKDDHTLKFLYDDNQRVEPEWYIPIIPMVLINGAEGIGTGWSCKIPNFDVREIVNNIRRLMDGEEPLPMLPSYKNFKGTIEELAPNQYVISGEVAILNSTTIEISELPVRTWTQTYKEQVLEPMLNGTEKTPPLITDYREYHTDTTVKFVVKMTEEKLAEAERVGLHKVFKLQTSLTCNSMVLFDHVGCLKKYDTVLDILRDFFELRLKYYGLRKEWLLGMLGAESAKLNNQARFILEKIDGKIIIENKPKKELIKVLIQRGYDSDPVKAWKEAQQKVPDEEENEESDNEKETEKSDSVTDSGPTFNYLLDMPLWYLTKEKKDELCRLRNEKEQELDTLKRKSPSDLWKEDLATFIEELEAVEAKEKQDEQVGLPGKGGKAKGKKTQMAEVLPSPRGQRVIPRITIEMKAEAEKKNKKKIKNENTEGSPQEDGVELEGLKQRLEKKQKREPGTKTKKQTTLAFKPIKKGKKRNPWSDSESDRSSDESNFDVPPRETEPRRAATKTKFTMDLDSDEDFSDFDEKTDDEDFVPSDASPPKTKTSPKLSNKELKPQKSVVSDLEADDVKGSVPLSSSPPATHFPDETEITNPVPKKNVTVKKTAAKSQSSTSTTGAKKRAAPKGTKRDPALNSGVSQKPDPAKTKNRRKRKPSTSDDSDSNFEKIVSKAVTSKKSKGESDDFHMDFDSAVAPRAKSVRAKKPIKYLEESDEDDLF

## CC(C)(O)[C@H]1Cc2c(cc(O)c3c(=O)c(-c4ccc(O)cc4)coc23)O1
OVCAR-5
  GI50: > 100 µM
MKN-45
  GI50: > 100 µM
[1]
  GI50: > 100 µM
[2]
  GI50: > 100 µM
OVCAR-4
  GI50: > 100 µM
SK-OV-3
  GI50: 26.9 µM
SF-539
  GI50: 53.7 µM
PC-3
  GI50: 91.2 µM
MKN-74
  GI50: > 100 µM
OVCAR-8
  GI50: > 100 µM
MKN-28
  GI50: > 100 µM
DMS-114
  GI50: > 100 µM
SF-268
  GI50: > 100 µM
KM12
  GI50: > 100 µM
ACHN
  GI50: > 100 µM
MCF7
  GI50: 89.1 µM
St-4
  GI50: > 100 µM
A549
  GI50: > 100 µM
DMS-273
  GI50: > 100 µM
LOX IMVI
  GI50: > 100 µM
[3]
  GI50: > 100 µM
U-251
  GI50: > 100 µM
HT-29
  GI50: > 100 µM
NCI-H460
  GI50: > 100 µM
GCIY
  Activity: inactive
SNB-75
  GI50: 16.6 µM
MKN-1
  GI50: > 100 µM
OVCAR-3
  GI50: > 100 µM
DU-145
  GI50: > 100 µM
NCI-H522
  GI50: 47.9 µM
SNB-78
  GI50: > 100 µM
HCC 2998
  GI50: > 100 µM
HCT-15
  GI50: > 100 µM
MDA-MB-231
  GI50: 45.7 µM
[4]
  Activity: Non-Toxic
MKN-7
  GI50: > 100 µM
RXF 631
  GI50: 85.1 µM
HCT-116
  GI50: > 100 µM
SF-295
  GI50: 52.5 µM
NCI-H23
  GI50: > 100 µM
NCI-H226
  GI50: > 100 µM

## O=c1[nH]cc(F)c(=O)[nH]1 [FLUOROURACIL]
GCIY
  Activity: Active
[4]
  Activity: Non-Toxic

## COc1cc([C@@H]2c3cc4c(cc3[C@@H](O[C@@H]3O[C@@H]5CO[C@@H](C)O[C@H]5[C@H](O)[C@H]3O)[C@H]3COC(=O)[C@H]23)OCO4)cc(OC)c1O [ETOPOSIDE]
OVCAR-5
  GI50: 19.5 µM
MKN-45
  GI50: 7.94 µM
[1]
  GI50: 16.6 µM
[2]
  GI50: 51.3 µM
OVCAR-4
  GI50: 38.9 µM
SK-OV-3
  GI50: 3.98 µM
SF-539
  GI50: 1.86 µM
PC-3
  GI50: > 100 µM
MKN-74
  GI50: 49 µM
OVCAR-8
  GI50: 6.76 µM
MKN-28
  GI50: 21.4 µM
DMS-114
  GI50: 2.88 µM
SF-268
  GI50: 5.37 µM
KM12
  GI50: 14.1 µM
ACHN
  GI50: 2.09 µM
MCF7
  GI50: 2.24 µM
St-4
  GI50: 20.9 µM
A549
  GI50: 2 µM
DMS-273
  GI50: 1.74 µM
LOX IMVI
  GI50: 3.47 µM
[5]
  inhibition: Active
[3]
  GI50: 5.37 µM
U-251
  GI50: 2.34 µM
HT-29
  GI50: 22.9 µM
NCI-H460
  GI50: 1.15 µM
SNB-75
  GI50: 6.92 µM
MKN-1
  GI50: 2.14 µM
OVCAR-3
  GI50: 23.4 µM
DU-145
  GI50: 2.82 µM
NCI-H522
  GI50: 4.68 µM
SNB-78
  GI50: 44.7 µM
HCC 2998
  GI50: 5.62 µM
HCT-15
  GI50: 16.2 µM
MDA-MB-231
  GI50: 21.4 µM
MKN-7
  GI50: 25.7 µM
RXF 631
  GI50: 12.3 µM
HCT-116
  GI50: 14.8 µM
SF-295
  GI50: 2.75 µM
NCI-H23
  GI50: 4.07 µM
NCI-H226
  GI50: 4.9 µM

## O=c1c(-c2ccc(O)cc2)coc2cc(O)cc(O)c12 [GENISTEIN]
OVCAR-5
  GI50: 50.1 µM
MKN-45
  GI50: 32.4 µM
[1]
  GI50: 43.7 µM
[2]
  GI50: 26.9 µM
OVCAR-4
  GI50: 43.7 µM
SK-OV-3
  GI50: 89.1 µM
SF-539
  GI50: 26.3 µM
MKN-74
  GI50: 36.3 µM
OVCAR-8
  GI50: 35.5 µM
MKN-28
  GI50: 39.8 µM
DMS-114
  GI50: 49 µM
SF-268
  GI50: 30.2 µM
KM12
  GI50: 50.1 µM
ACHN
  GI50: 19.5 µM
MCF7
  GI50: 42.7 µM
St-4
  GI50: 46.8 µM
A549
  GI50: 26.3 µM
DMS-273
  GI50: 21.9 µM
LOX IMVI
  GI50: 18.2 µM
[3]
  GI50: 43.7 µM
U-251
  GI50: 42.7 µM
HT-29
  GI50: 53.7 µM
NCI-H460
  GI50: 26.3 µM
SNB-75
  GI50: 15.8 µM
MKN-1
  GI50: 25.1 µM
OVCAR-3
  GI50: 31.6 µM
NCI-H522
  GI50: 17.8 µM
SNB-78
  GI50: 38.9 µM
HCC 2998
  GI50: 45.7 µM
HCT-15
  GI50: 30.2 µM
MDA-MB-231
  GI50: 37.2 µM
MKN-7
  GI50: 30.2 µM
RXF 631
  GI50: 40.7 µM
HCT-116
  GI50: 25.1 µM
SF-295
  GI50: 28.8 µM
NCI-H23
  GI50: 36.3 µM
NCI-H226
  GI50: 27.5 µM
